Assay results published in patent US20180021277A1, “ANTI-VIRULENCE COMPOSITIONS AND METHODS” (priority 2012, published 2018).
Numbering of substitutions follows the chain as printed. Where “and” joins values, the source holds several entries; their conditions need not be identical. Equal values may be shown once.

Key:
[1] = target: T1, AgrA_C from Staphylococcus epidermidis (Staphylococcus epidermidis, UniProt Q5HMY2); experiment: Microscale thermophoresis binding to AgrA_C from S. epidermidis; settings: compared with S. aureus AgrA_C; data not shown
T1 sequence (Q5HMY2 143-238 limits assumed): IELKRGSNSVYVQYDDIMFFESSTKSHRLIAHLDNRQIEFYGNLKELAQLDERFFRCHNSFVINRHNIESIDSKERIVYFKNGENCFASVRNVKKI
Experimental: (§1) The AgrA C proteins from S. aureus and S. epidermidis were fluorescently labeled with Alexa Fluor 647 NHS ester and purified on Zeba spin columns. Compound F19 was diluted as a gradient through the capillaries while protein concentrations were maintained constant. Measurements were performed on a Nanotemper Monolith NT.115 apparatus. Lysozyme and known inhibitor N,N′,N″-triacetylchitotriose (Fisher Scientific) were used as controls.

Bacillus cereus = experiment: Host cell damage assay (LDH leakage), Bacillus cereus; format: cell-based; settings: THP-1 human monocytes
Experimental: (§2) Damage to host cells was measured by leakage of lactate dehydrogenase (LDH) with the CytoTox 96 Non-Radioactive Cytotoxicity LDH Assay Promega Kits G178 and G1782 according to manufacturer's instructions.
(§3) Overnight cultures of the bacterial strain to be tested were spun down, washed, diluted 1:4 and incubated with broth containing 10-50 μg/ml of F19 or containing 2% DMSO as control. The bacteria were cultured at 37° C., in a shaking incubator for 6 h at which time 20 μL of bacterial culture was added to 5×10^4 THP-1 monocytes or J774.2 macrophages in 100 μL of cell media (DMEM for J774.2 cells and RPMI for THP-1 cells) in 96 well plates. Bacteria and macrophage/monocytes were incubated together for 40 min at 37° C. Plates were then spun at 250 g for 4 min and 50 μL of the supernatant was removed to a new 96 well plate. 50 μL of substrate mix+assay buffer were added and incubated at room temperature for 10-30 min depending upon the rate of product formation and stopped by addition of 50 μL stop solution. The colorometric products were read at 490 nm on a Victor 3 plate reader. The data presented are from experiments performed in triplicate.
(§4) Gram-positive pathogens compromise host cell defense factors by puncturing membranes of immune system cells. To examine F19 efficacy in preventing host cell damage by various pathogens cell lysis assays were carried out by measuring leakage of lactate dehydrogenase (LDH) from cells. F19 indeed inhibits pathogen-mediated lysis of human THP-1 monocytes and mouse macrophage cell line J7774.2 by a series of Gram-positive pathogens, including MRSA, MRSE, Streptococcus pyogenes, Streptococcus pneumoniae and Bacillus cereus in a dose dependent manner (Table 2 for MRSA, Table 4 for other pathogens).

[2] = target: T2, AgrA_C from S. epidermidis / P3 DNA (Staphylococcus epidermidis, UniProt Q5HMY2); experiment: Electrophoretic mobility shift assay of AgrA_C from S. epidermidis with P3 DNA; format: binding; settings: 1 nM P3 DNA, 1 μM AgrA_C, increasing F19, 1% DMSO
T2 sequence (Q5HMY2 143-238): T1 sequence (Q5HMY2 143-238 limits assumed)
Experimental: FIG. 8 illustrates Electrophoretic mobility shift assay of AgrA_C from S. epidermidis as a function of F19 concentration. […] P3 DNA was radiolabeled with 32P. The concentrations of P3 DNA and AgrA_C were 1 nM and 1 μM, respectively. F19 was titrated in at increasing concentrations while maintaining a constant concentration of 1% DMSO.

MRSA USA300 = experiment: Host cell damage assay (LDH leakage), MRSA; format: cell-based, Staphylococcus aureus; settings: for % Damage (LDH Leakage): THP-1 human monocytes; for Damage (%): Table 2, control = 100
Experimental: as §2
as §3, with “Overnight cultures of the bacterial strain to be tested were spun down, washed, diluted 1:4 and incubated with broth containing 10-50 μg/ml of F19 or containing 2% DMSO as control.” left out
as §4

[3] = system: MRSA knockout strain (Lac Δagr); format: cell-based, Staphylococcus aureus; settings: data not shown
[4] = system: Strepococcus pyogenes AC7; experiment: Host cell damage assay (LDH leakage), Streptococcus pyogenes; format: cell-based; settings: THP-1 human monocytes
Experimental: as §2
as §3, with “Overnight cultures of the bacterial strain to be tested were spun down, washed, diluted 1:4 and incubated with broth containing 10-50 μg/ml of F19 or containing 2% DMSO as control.” left out
as §4

[5] = target: T3, C-terminal DNA-binding domain (AgrA_C) of the Staphylococcus aureus response regulator AgrA (Staphylococcus aureus, UniProt P0A0I7); experiment: Microscale thermophoresis binding to AgrA_C; settings: listed as F19, read-out: Kd / affinity to AgrA_C
T3 sequence (P0A0I7 143-238): T1 sequence (Q5HMY2 143-238 limits assumed) with A48S, E52D, I63V, G83K, N85H, F87Y
Experimental: as §1

MRSE Q-15 = experiment: Biofilm measurement (crystal violet), MRSE; format: cell-based, Staphylococcus epidermidis; settings: control = 100
Experimental: Bacterial cells were grown in Luria Broth overnight and an OD600 of 0.5 corresponding to 10^6 cfu/mL. 200 μL of this bacterial culture was plated with the presence of compound at various concentrations. Biofilm was allowed to form by placing the plate at 37° C. in the incubator without shaking. The plate was then washed 2× with water while being careful not to disturb the biofilm. Water was aspirated out and the plate was baked dry in a 60° C. incubator for 2 h. 125 μL of a 0.06% crystal violet solution ([…] in H2O) was added to each well and allowed to sit at room temperature for 15 minutes. […] The plate was inverted on a paper towel to dry overnight.125 μL of 30% acetic acid was added to each well and was left at room temperature for 15 minutes. The wells were mixed by pipetting and the solution was transferred to a clean 96-well plate and read at OD595.

## CCCCCCc1cc(C(=O)COc2ccc(C(C)C)cc2)c(O)cc1O [4f-19]
[1]
  affinity to AgrA_C from Staphylococcus epidermidis: Statistically identical affinity
Bacillus cereus; F19 30 μg/mL
  % Damage (LDH Leakage): 63.7 ± 1.3%
Bacillus cereus; F19 40 μg/mL
  % Damage (LDH Leakage): 52.0 ± 0.1%
Bacillus cereus; F19 50 μg/mL
  % Damage (LDH Leakage): 69.7 ± 1.2%
[2]
  formation of the protein-nucleic acid complex (EMSA): prevent the formation of the protein—nucleic acid complex
MRSA USA300; F19 1 μg/mL
  % Damage (LDH Leakage): 62.0 ± 0.6%
MRSA USA300; F19 10 μg/mL
  % Damage (LDH Leakage): 44.2 ± 2.0%
MRSA USA300; F19 50 μg/mL
  % Damage (LDH Leakage): 29.1 ± 1.6%
MRSA USA300; F19 1 μg/ml
  Damage (%): 62.0 ± 0.6%
MRSA USA300; F19 10 μg/ml
  Damage (%): 44.2 ± 2.0%
MRSA USA300; F19 50 μg/ml
  Damage (%): 29.1 ± 1.6%
[3]
  synergy with antibiotics in Lac Δagr: synergy is lost
[4]; F19 5 μg/mL
  % Damage (LDH Leakage): 97.4 ± 0.7%
[4]; F19 10 μg/mL
  % Damage (LDH Leakage): 88.4 ± 1.9%
[4]; F19 20 μg/mL
  % Damage (LDH Leakage): 73.6 ± 0.5%
[4]; F19 30 μg/mL
  % Damage (LDH Leakage): 56.2 ± 3.4%
[4]; F19 40 μg/mL
  % Damage (LDH Leakage): 38.7 ± 1.8%
[5]
  Kd: 2.9 µM and 4.5 µM
MRSE Q-15; F19 1 μg/ml
  Biofilm (%): 92.2 ± 9.8%
MRSE Q-15; F19 10 μg/ml
  Biofilm (%): 69.3 ± 10.7%
MRSE Q-15; F19 50 μg/ml
  Biofilm (%): 34.1 ± 9.8%
